According to patent US7510703B2, “UV-photoprotecting/sunscreen compositions comprising silane/siloxane derivatives of merocyanine sulfones” (L'Oreal, priority 2004, dated 2009):

Experiment: UV absorption spectrum (λmax, E1%) of the UV filter compounds
Assay type: physicochemical
Conditions: for E1%: at main λmax; for E1% (shoulder): at shoulder; for λmax: main maximum

## COC(=O)/C(=C\C=C\N(C)CCC[Si](C)(O[Si](C)(C)C)O[Si](C)(C)C)S(=O)(=O)c1ccc(C)cc1 [Example 1]
UV (Ethanol)
  E1%: 1154
  E1% (shoulder): 773
  λmax: 372 nm
  λmax (shoulder): 356 nm

## C#CCN(C)C=CC=C(C(=O)OCC)S(=O)(=O)c1ccccc1 [ethyl-5-[methyl(prop-2-ynyl)amino]-2-(phenylsulfonyl)penta-2,4-dienoate]
UV (CH2Cl2)
  E1%: 1367
  E1% (shoulder): 1298
  λmax: 366 nm
  λmax (shoulder): 358 nm

## C=CCN(C)C=CC=C(C(=O)OC)S(=O)(=O)c1ccc(C)cc1 [methyl-5-[allyl(methyl)amino]-2-[(4-methylphenyl)sulfonyl]penta-2,4-dienoate]
UV (CH2Cl2)
  E1%: 1346
  E1% (shoulder): 1031
  λmax: 370 nm
  λmax (shoulder): 356 nm
